Data from patent US20250243196A1, “CITRON KINASE INHIBITORS” (The Cleveland Clinic Foundation, priority 2021, published 2025).

Assays:
PKAα = PKAα (Homo sapiens (Human), UniProt P17612); experiment: KinaseProfiler radiometric assay (14-440KP); type: biochemical; conditions: mean of at least two independent experiments
From the text: (§1) In another aspect, disclosed is a method of inhibiting citron kinase in a sample, comprising contacting the sample with a compound described herein (e.g., a compound of formula (I) or a pharmaceutically acceptable salt thereof), or a pharmaceutical composition described herein (e.g., a pharmaceutical composition comprising a compound of formula (I) or a pharmaceutically acceptable salt thereof), in an amount effective to inhibit citron kinase. In some embodiments, the step of contacting the sample with the compound comprises administering the compound to a subject (e.g., a subject) suffering from cancer. Methods of determining kinase inhibition are well known in the art. For example, kinase activity of an enzyme and the inhibitory capacity of a test compound can be determined by measuring enzyme specific phosphorylation of a substrate. Commercial assays and kits can be employed. For example, kinase inhibition can be determined using a radiometric binding assay, such as using KinaseProfiler™ technology (Eurofins Discovery). This assay method directly detects product formation without the use of modified substrates or coupling enzymes. Test compounds are incubated with kinase, substrate, required cofactors and radioisotope labeled ATP. Following incubation, unreacted radioactive ATP is removed by washing and incorporation of the radiolabeled phosphate into the kinase substrate is assayed to detect phosphoryltransferase activity, which is directly proportional to the amount of phosphorylated substrate. Inhibition of the kinase by a kinase inhibitor prevents phosphorylation of the substrate and thereby limits the incorporation of radiolabeled phosphate. Such an assay is compatible with a microwell assay format, allowing simultaneous determination of IC50 of multiple compounds.
(§2) The effect of various compounds on the inhibition of other kinases has also been determined. Table 2 reports measured IC50 values; value units are nanomolar inhibition.

ROCK-2 = ROCK-2 (Homo sapiens (Human), UniProt O75116); experiment: KinaseProfiler radiometric assay (14-451KP); type: biochemical; conditions: mean of at least two independent experiments
From the text: as §1, §2

Citron kinase = Citron kinase (Homo sapiens (Human), UniProt O14578); experiment: Radiometric citron kinase assay (Eurofins Cat #16-040KP); type: biochemical; conditions: mean of at least two independent assays; read-out: Radiometric CitK IC50
Outline: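 Radiometric KinaseProfiler format: test compound incubated with kinase, substrate, cofactors and radiolabelled ATP; unreacted ATP washed away and radiolabelled phosphate incorporated into substrate measured. IC50 derived from inhibition of phosphorylation. Values are means of at least two independent assays.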

HIPK4 = HIPK4 (Homo sapiens (Human), UniProt Q8NE63); experiment: KinaseProfiler radiometric assay (15-003KP); type: biochemical; conditions: mean of at least two independent experiments
Chain of HIPK4 (Q8NE63 whole entry): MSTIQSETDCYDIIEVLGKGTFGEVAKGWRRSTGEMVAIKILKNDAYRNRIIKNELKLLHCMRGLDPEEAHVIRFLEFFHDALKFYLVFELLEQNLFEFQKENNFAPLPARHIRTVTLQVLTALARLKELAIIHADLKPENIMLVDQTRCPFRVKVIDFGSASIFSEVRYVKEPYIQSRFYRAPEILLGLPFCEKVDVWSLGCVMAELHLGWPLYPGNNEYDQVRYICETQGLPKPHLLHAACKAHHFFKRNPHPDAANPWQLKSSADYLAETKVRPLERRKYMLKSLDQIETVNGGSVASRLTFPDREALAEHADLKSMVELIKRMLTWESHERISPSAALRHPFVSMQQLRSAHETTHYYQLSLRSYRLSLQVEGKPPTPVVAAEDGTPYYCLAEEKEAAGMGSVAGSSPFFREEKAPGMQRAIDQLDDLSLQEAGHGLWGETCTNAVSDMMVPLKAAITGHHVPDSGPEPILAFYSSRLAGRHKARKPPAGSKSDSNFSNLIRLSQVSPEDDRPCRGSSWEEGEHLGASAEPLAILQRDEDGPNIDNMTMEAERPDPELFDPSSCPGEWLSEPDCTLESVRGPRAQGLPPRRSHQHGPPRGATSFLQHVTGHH
From the text: as §1, with “Test compounds are incubated with kinase, substrate, required cofactors and radioisotope labeled ATP. Following incubation, unreacted radioactive ATP is removed by washing and incorporation of the radiolabeled phosphate into the kinase substrate is assayed to detect phosphoryltransferase activity, which is directly proportional to the amount of phosphorylated substrate. Inhibition of the kinase by a kinase inhibitor prevents phosphorylation of the substrate and thereby limits the incorporation of radiolabeled phosphate. Such an assay is compatible with a microwell assay format, allowing simultaneous determination of IC50 of multiple compounds.” left out
as §2

AAK1 = AAK1 (Homo sapiens (Human), UniProt Q2M2I8); experiment: KinaseProfiler radiometric assay (16-043KP); type: biochemical; conditions: mean of at least two independent experiments
From the text: as §1, with “Test compounds are incubated with kinase, substrate, required cofactors and radioisotope labeled ATP. Following incubation, unreacted radioactive ATP is removed by washing and incorporation of the radiolabeled phosphate into the kinase substrate is assayed to detect phosphoryltransferase activity, which is directly proportional to the amount of phosphorylated substrate. Inhibition of the kinase by a kinase inhibitor prevents phosphorylation of the substrate and thereby limits the incorporation of radiolabeled phosphate. Such an assay is compatible with a microwell assay format, allowing simultaneous determination of IC50 of multiple compounds.” left out
as §2

DRAK2 = DRAK2 (Homo sapiens (Human), UniProt O94768); experiment: KinaseProfiler radiometric assay (16-003KP); type: biochemical; conditions: mean of at least two independent experiments
From the text: as §1, with “In” for “In another aspect, disclosed is a method of inhibiting citron kinase in a sample, comprising contacting the sample with a compound described herein (e.g., a compound of formula (I) or a pharmaceutically acceptable salt thereof), or a pharmaceutical composition described herein (e.g., a pharmaceutical composition comprising a compound of formula (I) or a pharmaceutically acceptable salt thereof), in an amount effective to inhibit citron kinase. In”

[1] = biological target: NanoLuc-CITK (full-length human CITK) (Homo sapiens (Human), UniProt O14578); experiment: NanoBRET intracellular target engagement assay; type: cell-based
Chain of NanoLuc-CITK (full-length human CITK) (O14578 other isoform, or with tags, fused parts or gaps): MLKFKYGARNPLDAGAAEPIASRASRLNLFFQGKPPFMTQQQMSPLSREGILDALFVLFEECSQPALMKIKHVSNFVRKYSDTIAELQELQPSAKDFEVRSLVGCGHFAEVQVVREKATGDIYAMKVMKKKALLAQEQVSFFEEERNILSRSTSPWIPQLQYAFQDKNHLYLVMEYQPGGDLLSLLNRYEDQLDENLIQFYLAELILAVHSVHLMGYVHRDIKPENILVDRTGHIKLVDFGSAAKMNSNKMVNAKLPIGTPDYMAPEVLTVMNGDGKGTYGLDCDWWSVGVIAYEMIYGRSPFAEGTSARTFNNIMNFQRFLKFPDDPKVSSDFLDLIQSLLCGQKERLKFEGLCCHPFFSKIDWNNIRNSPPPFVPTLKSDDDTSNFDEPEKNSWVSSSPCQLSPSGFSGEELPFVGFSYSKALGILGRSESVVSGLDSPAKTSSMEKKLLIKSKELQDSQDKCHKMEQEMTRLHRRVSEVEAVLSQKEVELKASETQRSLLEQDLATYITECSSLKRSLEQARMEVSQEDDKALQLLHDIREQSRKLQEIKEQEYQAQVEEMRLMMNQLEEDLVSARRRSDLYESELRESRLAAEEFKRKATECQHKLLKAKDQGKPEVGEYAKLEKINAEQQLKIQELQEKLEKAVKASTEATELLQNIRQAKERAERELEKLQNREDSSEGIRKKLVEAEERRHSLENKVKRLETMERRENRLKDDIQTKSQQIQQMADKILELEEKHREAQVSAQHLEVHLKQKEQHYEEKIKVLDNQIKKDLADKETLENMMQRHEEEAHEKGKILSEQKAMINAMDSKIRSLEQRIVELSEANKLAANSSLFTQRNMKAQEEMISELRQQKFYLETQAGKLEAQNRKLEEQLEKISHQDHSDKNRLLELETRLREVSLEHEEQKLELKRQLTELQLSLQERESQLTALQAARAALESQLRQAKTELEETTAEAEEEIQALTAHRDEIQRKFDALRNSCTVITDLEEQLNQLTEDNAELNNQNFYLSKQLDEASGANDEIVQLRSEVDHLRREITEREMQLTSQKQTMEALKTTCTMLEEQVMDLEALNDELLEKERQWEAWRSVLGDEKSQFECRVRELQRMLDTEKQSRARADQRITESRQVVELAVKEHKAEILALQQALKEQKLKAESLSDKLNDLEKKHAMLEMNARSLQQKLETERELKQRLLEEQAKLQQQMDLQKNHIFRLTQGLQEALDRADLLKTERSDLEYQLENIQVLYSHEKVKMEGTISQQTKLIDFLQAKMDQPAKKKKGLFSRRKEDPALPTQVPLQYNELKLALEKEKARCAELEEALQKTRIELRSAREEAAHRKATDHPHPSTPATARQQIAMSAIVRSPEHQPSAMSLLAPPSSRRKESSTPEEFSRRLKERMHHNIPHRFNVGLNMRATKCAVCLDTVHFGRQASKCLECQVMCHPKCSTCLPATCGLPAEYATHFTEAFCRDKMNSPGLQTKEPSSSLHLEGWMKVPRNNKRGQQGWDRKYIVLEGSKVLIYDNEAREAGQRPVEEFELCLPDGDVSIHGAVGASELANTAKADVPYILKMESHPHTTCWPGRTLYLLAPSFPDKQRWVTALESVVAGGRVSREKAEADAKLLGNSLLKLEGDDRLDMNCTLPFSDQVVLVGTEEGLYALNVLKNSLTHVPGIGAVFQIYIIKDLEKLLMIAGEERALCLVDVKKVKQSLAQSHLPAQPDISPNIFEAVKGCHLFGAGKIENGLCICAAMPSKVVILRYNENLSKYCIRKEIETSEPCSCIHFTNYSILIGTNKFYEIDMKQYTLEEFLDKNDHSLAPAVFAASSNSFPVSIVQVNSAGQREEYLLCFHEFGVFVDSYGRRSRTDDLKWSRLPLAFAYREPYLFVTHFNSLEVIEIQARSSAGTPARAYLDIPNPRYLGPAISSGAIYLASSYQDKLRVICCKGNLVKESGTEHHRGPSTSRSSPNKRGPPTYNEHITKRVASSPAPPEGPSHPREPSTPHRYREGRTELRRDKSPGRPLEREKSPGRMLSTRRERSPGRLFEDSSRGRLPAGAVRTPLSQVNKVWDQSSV
Description: In-cell Kd values were evaluated with a NanoBRET Target Engagement Assay essentially as recommended by the manufacturer (Promega Corporation—for details see https://www.promega.com/resources/technologies/nanoluc-luciferase-enzyme/cellular-target-engagement/).
HEK293T cells were transfected with 5.0 μg/mL sterile NanoLuc-CITK DNA, 5.0 μg/mL Transfection Carrier DNA, and 30 μL/mL FugeneHD® (Promega) in Opti-Mem™ (Thermo) media at a cell density of 250,000 cells/mL. […] 5 μL of the 25× Tracer K10 solution was added to each well. Next, designated inhibitors were prepared from powder as 10 mM DMSO stocks and then further diluted to 10× the final assay concentration in Opti-Mem™. 12-pt dose-response curves were prepared by 3×-serial dilution. […] A 3× Complete Substrate+Inhibitor solution, containing 6 mL of Opti-Mem™, 36 μL of NanoBRET Nano-Glo Substrate, and 12 μL Extracellular NanoLuc Inhibitor was freshly prepared for each plate. 50 μL of the 3× Complete Substrate+Inhibitor solution was added to all wells and the plate was incubated for 2 min with 500 RPM shaking. The bottom of the plates were covered with black plate seals and then measured on a Cytation 5 plate reader (Biotek) with a NanoBRET Filter Cube (Biotek; 450/50 emission & 610LP emission). Background corrected BRET ratios (in mBU) were calculated in Excel and IC50's were subsequently extracted using four-parameter non-linear regression in GraphPad Prism 8.

Mnk2 = Mnk2 (Homo sapiens (Human), UniProt Q9HBH9); experiment: KinaseProfiler radiometric assay (14-664KP); type: biochemical; conditions: mean of at least two independent experiments
Chain of Mnk2 (Q9HBH9 whole entry): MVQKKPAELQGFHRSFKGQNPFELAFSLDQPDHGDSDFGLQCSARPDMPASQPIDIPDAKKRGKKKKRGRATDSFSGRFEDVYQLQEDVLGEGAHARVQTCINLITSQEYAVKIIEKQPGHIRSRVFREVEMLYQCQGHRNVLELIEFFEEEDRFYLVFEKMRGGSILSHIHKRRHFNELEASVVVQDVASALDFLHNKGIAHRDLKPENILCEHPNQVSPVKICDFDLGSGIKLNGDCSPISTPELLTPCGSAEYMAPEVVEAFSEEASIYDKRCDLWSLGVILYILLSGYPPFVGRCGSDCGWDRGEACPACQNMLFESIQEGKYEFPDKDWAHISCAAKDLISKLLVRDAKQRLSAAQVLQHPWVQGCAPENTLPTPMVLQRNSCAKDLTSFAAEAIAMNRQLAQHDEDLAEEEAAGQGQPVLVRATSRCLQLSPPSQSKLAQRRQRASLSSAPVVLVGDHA
From the text: as §1, with “Test compounds are incubated with kinase, substrate, required cofactors and radioisotope labeled ATP. Following incubation, unreacted radioactive ATP is removed by washing and incorporation of the radiolabeled phosphate into the kinase substrate is assayed to detect phosphoryltransferase activity, which is directly proportional to the amount of phosphorylated substrate. Inhibition of the kinase by a kinase inhibitor prevents phosphorylation of the substrate and thereby limits the incorporation of radiolabeled phosphate. Such an assay is compatible with a microwell assay format, allowing simultaneous determination of IC50 of multiple compounds.” left out
as §2

ACK1 = ACK1 (Homo sapiens (Human), UniProt Q07912); experiment: KinaseProfiler radiometric assay (14-756KP); type: biochemical; conditions: mean of at least two independent experiments
From the text: as §1, with “In” for “In another aspect, disclosed is a method of inhibiting citron kinase in a sample, comprising contacting the sample with a compound described herein (e.g., a compound of formula (I) or a pharmaceutically acceptable salt thereof), or a pharmaceutical composition described herein (e.g., a pharmaceutical composition comprising a compound of formula (I) or a pharmaceutically acceptable salt thereof), in an amount effective to inhibit citron kinase. In”

IKKβ = IKKβ (Homo sapiens (Human), UniProt O14920); experiment: KinaseProfiler radiometric assay (14-485KP); type: biochemical; conditions: mean of at least two independent experiments
Chain of IKKβ (O14920 whole entry): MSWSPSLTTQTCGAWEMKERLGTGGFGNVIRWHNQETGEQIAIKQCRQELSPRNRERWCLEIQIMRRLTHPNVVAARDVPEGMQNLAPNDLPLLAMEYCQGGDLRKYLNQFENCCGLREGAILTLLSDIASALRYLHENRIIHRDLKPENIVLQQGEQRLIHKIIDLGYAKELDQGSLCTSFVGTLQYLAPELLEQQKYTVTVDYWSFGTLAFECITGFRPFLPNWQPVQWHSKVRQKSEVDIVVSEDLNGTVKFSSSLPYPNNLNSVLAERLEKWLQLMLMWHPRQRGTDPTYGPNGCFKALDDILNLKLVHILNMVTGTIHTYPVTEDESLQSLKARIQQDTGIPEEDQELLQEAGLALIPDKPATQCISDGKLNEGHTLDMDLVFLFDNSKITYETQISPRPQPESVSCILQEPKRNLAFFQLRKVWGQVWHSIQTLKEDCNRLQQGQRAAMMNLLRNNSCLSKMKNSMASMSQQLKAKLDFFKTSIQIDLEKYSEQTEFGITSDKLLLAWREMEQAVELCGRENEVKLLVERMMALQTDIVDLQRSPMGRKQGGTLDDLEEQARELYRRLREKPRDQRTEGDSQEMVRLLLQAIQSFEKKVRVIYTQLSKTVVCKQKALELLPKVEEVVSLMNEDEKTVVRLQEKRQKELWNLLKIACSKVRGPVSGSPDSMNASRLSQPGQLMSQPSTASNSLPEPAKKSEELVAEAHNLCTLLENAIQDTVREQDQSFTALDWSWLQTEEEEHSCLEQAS
From the text: as §1, §2

BIKE = BIKE (Homo sapiens (Human), UniProt Q9NSY1); experiment: KinaseProfiler radiometric assay (16-044KP); type: biochemical; conditions: mean of at least two independent experiments
Chain of BIKE (Q9NSY1 whole entry): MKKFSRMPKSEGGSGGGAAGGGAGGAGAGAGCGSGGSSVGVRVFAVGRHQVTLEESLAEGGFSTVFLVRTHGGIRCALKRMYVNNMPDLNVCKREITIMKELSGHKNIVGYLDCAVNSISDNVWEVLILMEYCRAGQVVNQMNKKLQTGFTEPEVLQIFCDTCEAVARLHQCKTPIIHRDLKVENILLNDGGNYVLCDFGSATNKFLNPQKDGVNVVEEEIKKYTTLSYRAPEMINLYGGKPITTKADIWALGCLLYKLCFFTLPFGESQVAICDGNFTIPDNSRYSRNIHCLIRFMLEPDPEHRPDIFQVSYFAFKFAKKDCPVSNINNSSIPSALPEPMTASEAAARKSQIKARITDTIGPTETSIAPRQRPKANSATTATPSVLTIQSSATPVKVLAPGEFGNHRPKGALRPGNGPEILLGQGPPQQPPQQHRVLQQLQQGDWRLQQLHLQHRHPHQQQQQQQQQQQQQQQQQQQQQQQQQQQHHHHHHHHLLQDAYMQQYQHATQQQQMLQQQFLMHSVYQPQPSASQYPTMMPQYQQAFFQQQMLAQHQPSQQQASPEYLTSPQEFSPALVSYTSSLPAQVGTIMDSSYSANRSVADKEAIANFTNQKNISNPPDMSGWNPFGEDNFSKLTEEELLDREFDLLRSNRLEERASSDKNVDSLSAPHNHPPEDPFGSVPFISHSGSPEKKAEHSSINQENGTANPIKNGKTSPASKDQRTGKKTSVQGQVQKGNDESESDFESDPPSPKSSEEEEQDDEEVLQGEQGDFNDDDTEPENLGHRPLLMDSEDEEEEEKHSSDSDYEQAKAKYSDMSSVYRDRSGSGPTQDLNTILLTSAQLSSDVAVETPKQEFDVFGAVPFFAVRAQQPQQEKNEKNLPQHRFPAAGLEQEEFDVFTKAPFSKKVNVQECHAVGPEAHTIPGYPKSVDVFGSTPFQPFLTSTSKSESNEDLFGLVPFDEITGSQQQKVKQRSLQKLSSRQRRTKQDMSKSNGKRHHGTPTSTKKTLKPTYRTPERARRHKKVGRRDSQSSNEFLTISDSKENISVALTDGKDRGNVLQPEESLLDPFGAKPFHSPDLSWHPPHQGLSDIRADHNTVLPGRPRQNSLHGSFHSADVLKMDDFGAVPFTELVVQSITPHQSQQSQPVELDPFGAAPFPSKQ
From the text: as §1, with “Test compounds are incubated with kinase, substrate, required cofactors and radioisotope labeled ATP. Following incubation, unreacted radioactive ATP is removed by washing and incorporation of the radiolabeled phosphate into the kinase substrate is assayed to detect phosphoryltransferase activity, which is directly proportional to the amount of phosphorylated substrate. Inhibition of the kinase by a kinase inhibitor prevents phosphorylation of the substrate and thereby limits the incorporation of radiolabeled phosphate. Such an assay is compatible with a microwell assay format, allowing simultaneous determination of IC50 of multiple compounds.” left out
as §2

Compound `Cc1cc2c(-c3ccc(NC(=O)[C@H](N)C(C)(C)O)cc3C)ccnc2[nH]1` [Compound F-140, (2R)-2-Amino-3-hydroxy-3-methyl-N-[3-methyl-4-(2-methyl-1H-pyrrolo[2,3-b]pyridin-4-yl)phenyl]butanamide] has an IC50 (PKAα) of over 3000 nM, an IC50 (ROCK-2) of over 3000 nM and an IC50 (Citron kinase) of 40 nM. The IC50 (HIPK4) was over 3000 nM, the IC50 (AAK1) was 1910 nM and the IC50 (DRAK2) was over 3000 nM. The Kd [1] was 108 nM, the IC50 ([1]; HEK293T cells transfected with NanoLuc-CITK, Tracer K10 1 μM, 2 hours) was 580 nM and the IC50 (Mnk2) was 1990 nM. The IC50 (ACK1) was over 3000 nM, the IC50 (IKKβ) was over 3000 nM and the IC50 (BIKE) was over 3000 nM.
